This is an account of results in patent publication US20250090539A1, “COMBINATION TREATMENT OF CANCERS” (Repare Therapeutics Inc., priority 2023, published 2025).

Where a name gives a salt, the structure may show the parent alone. Read-outs that look alike come from different tables or passages of the source.

Series [1] relates to SUM149PT breast cancer cell line. Put plainly: CellTiter Glo cell viability / ZIP synergy in BRCA1mut model. The series is classed as cell-based. To be noted: single agent at the same low nM doses. The protocol: FIGS. 2A-2B are charts showing the ZIP synergy score matrix in a BRCA1mut model treated with gemcitabine at low-nanomolar concentrations (15 nM) synergizing with camonsertib 7.5 nM (2 days on (FIG. 2A) or 3 days on (FIG. 2B)). ZIP synergy scores greater than 10 indicate drug synergy and scores less than −10 indicates antagonism. Mean CTG cell viability data from 3 independent experiments were processed with SynergyFinder (https://synergyfinder.fimm.fi/; PMIDs: 35580060, 26949479). Dotted lines indicated doses exerting maximum synergy.
FIGS. 3A-3B show the synergy of gemcitabine with camonsertib in a BRCA1 mut model. […] FIG. 3B is a graph of the viability of the SUM149PT treated with the indicated compounds and schedules. Data (circles) from three independent experiments is provided with mean (bars)±SD. The P value calculated with an unpaired two-tailed Student's t-test. Cell viability was read out at day 8 with a CellTiter Glo (CTG) assay.
To assess the synergy between camonsertib and gemcitabine in a BRCA1-mutated cancer cell model in vitro, a SUM149PT breast cancer cell line was employed. The combination was administered at various dosing schedules—1, 2, or 3 day treatment with camonsertib combined with a single 4 h dose of gemcitabine (FIG. 3A).
In general terms: Cellular ATP, detected with luciferase, serves as a proxy for viable cell number.

The subject of series [2] is SUM149PT BRCA1 mutated xenograft. The series is classed as in vivo. To be noted: single agents at low doses: camonsertib 10 mg/kg PO 3 days on/4 days off; gemcitabine 20 mg/kg QW; 28 days.
Experimental: The relative tumor xenograft volume (FIG. 4A) and change in body weight in mice treated (FIG. 4B) is shown for mice treated with gemcitabine at 20 mg/kg QW on Day 1 and/or camonsertib at 10 mg/kg PO on different schedules weekly for 28 days. Results are expressed as mean±SEM, N=7/group in female NOD-SCID mice. Statistical differences were established by Student's T-test (GraphPad Prism v9) with Welch's correction; ns=not significant, *p<0.05, **p<0.01.
A xenograft model was employed to assess the effect of camonsertib in combination with gemcitabine on tumor formation in an animal model. Mice harboring established tumors were treated with a vehicle control, camonsertib (10 mg/kg once per day with 3 days on/4 days off), gemcitabine (20 mg/kg once per week), or a combination of both camonsertib (once per day selected from 3 days on/4 days off, 2 days on/5 days off, or 1 day on/6 days off) and gemcitabine (once per week) for 28 days.
Relative tumor xenograft volume of the mice treated with gemcitabine at 20 mg/kg QW on Day 1 and/or camonsertib at 10 mg/kg PO on different schedules weekly for 28 days is shown in FIG. 4A and the change in body weight is shown in FIG. 4B. Results are expressed as mean±SEM, N=7/group in female NOD-SCID mice. Statistical differences were established by Student's T-test (GraphPad Prism v9) with Welch's correction; ns=not significant, *p<0.05, **p<0.01.
A short description of series [3]: maximum tolerated dose in mice. It is filed as in vivo.
The conditions of series [4]: humans, cited from earlier work.

For `Nc1ccn([C@@H]2O[C@H](CO)[C@@H](O)C2(F)F)c(=O)n1` [gemcitabine, 2-Deoxy-2,2-difluorocytidine hydrochloride], in series [1], the “cell viability (CTG, day 8)” value was “only modest effect”. Further, the “anti-tumor activity (relative tumor xenograft volume)” value in series [2] is “reduced activity”. Also, the MTD (usually the highest dose tested that stayed within the study's limit of toxicity) in series [3] (mouse, in vivo, read-out: MTD) was 100 mg/kg. In addition, the entries for the “mean gemcitabine peak plasma concentration” value in series [4] (800 mg/m^2) and in series [4] (1000 mg/m^2) were 24 µM and 32 µM, respectively.

Take `C[C@@H]1COCCN1c1cc([C@]2(O)C[C@H]3CC[C@@H](C2)O3)c2cnn(-c3cc[nH]n3)c2n1` [camonsertib, (1R,5S)-3-[6-[(3R)-3-methylmorpholin-4-yl]-1-(1H-pyrazol-5-yl)pyrazolo[3,4-b]pyridin-4-yl]-8-oxabicyclo[3.2.1]octan-3-ol]: the “cell viability (CTG, day 8)” value in series [1] is listed as “only modest effect”. In series [2], the “anti-tumor activity (relative tumor xenograft volume)” value is “reduced activity”. Moreover, the MTD in series [3] stood at 30 mg/kg.
